Measurements published in PubChem BioAssay (NCI).
Several values for one entry are separate records, joined by “and”; a condition that tells them apart may be missing. Equal values may be shown once.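 1) Cells in 96-well plates. 2) Compound, 48 h, 5 concentrations. 3) Linear interpolation between surrounding doses. 4) Unreached endpoint = highest concentration. GI50 is the concentration that inhibits growth by half. TGI is the concentration that stops growth completely.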

Columns and labels:
Assay in all cases: NCI-60 cell line screen, 48 h
UACC-62 melanoma = tested on: UACC-62 melanoma
SNB-19 CNS = tested on: SNB-19 CNS
LOX IMVI melanoma = tested on: LOX IMVI melanoma
EKVX NSCLC = tested on: EKVX NSCLC
SF-539 CNS = tested on: SF-539 CNS
OVCAR-4 ovarian = tested on: OVCAR-4 ovarian
A498 renal = tested on: A498 renal
HL-60(TB) leukemia = tested on: HL-60(TB) leukemia
RPMI-8226 leukemia = tested on: RPMI-8226 leukemia
CCRF-CEM leukemia = tested on: CCRF-CEM leukemia

| Structure (SMILES) | GI50 (UACC-62 melanoma) | TGI (UACC-62 melanoma) | GI50 (SNB-19 CNS) | TGI (SNB-19 CNS) | GI50 (LOX IMVI melanoma) | TGI (LOX IMVI melanoma) | GI50 (EKVX NSCLC) | TGI (EKVX NSCLC) | GI50 (SF-539 CNS) | TGI (SF-539 CNS) | GI50 (OVCAR-4 ovarian) | TGI (OVCAR-4 ovarian) | GI50 (A498 renal) | TGI (A498 renal) | GI50 (HL-60(TB) leukemia) | TGI (HL-60(TB) leukemia) | GI50 (RPMI-8226 leukemia) | TGI (RPMI-8226 leukemia) | GI50 (CCRF-CEM leukemia) | TGI (CCRF-CEM leukemia) |
| --- | --- | --- | --- | --- | --- | --- | --- | --- | --- | --- | --- | --- | --- | --- | --- | --- | --- | --- | --- | --- |
| COc1cc2c(Nc3ccc(Br)cc3F)ncnc2cc1OCC1CCN(C)CC1 | 1800 nM and 2790 nM | 4.03 µM and > 10 µM | 4.7 µM and > 10 µM | 18.3 µM and > 10 µM | 2370 nM and 3390 nM | 8.83 µM and > 10 µM | 286 nM and 401 nM | 10.3 µM and > 10 µM | 2930 nM and 7940 nM | 9.49 µM and > 10 µM | 2920 nM and 5590 nM | 14.8 µM and > 10 µM | 712 nM and 2030 nM | 4.36 µM and > 10 µM | 2650 nM and 3140 nM | 7.56 µM and > 10 µM | 3330 nM and 6840 nM | 14 µM and > 10 µM | 4.71 µM and > 10 µM | 17.5 µM and > 10 µM |
| COc1cccc(-c2nc(-c3ccc(NC(=O)c4ccccc4)cc3)[nH]c2-c2ccnc(Br)c2)c1 | 2950 nM | > 100 µM | 3.87 µM | > 100 µM | 1130 nM | 2.69 µM | 2180 nM | 9.47 µM | 1590 nM | 12.6 µM | 4900 nM | > 100 µM | 1740 nM | 6.5 µM | 1720 nM | 7.45 µM | 398 nM | 2.11 µM | 3.15 µM | > 100 µM |
| O=S1c2ccccc2N=C(c2ccc(Cl)cc2)CC1c1cccs1 (centres undefined) |  | 64.1 µM |  | 45.2 µM |  | 25.9 µM |  | > 100 µM |  | 32.5 µM |  | 57.2 µM |  | > 100 µM |  | 45.1 µM |  | 56.2 µM |  | 86.5 µM |
| CN(C)c1ccc2cc(-c3cc4c(oc3=O)-c3ccccc3OC4O)c(=O)oc2c1 (centres undefined) | 4080 nM | 8.53 µM | 3.56 µM | 12.2 µM | 3520 nM | 7.3 µM | 2180 nM | > 25 µM | 6830 nM | > 25 µM | 550 nM | > 25 µM | 5670 nM | 23.5 µM | 5700 nM | > 25 µM | 439 nM | 4.71 µM | 2.54 µM | 7.95 µM |
| CCOC(=O)C#Cc1ccc([N+](=O)[O-])cc1 |  | 4.05 µM |  | 25.7 µM |  | 2.77 µM |  | 4.71 µM |  | 6.69 µM |  | 23.3 µM |  | 32 µM |  | 4.1 µM |  | 4.68 µM |  | 4.05 µM |
| Cc1cccc2c1NC(=O)[C@@]21[C@H](C(=O)c2ccccc2)[C@]2(C(=O)Nc3ccccc32)[C@H]2CCCN21 | 12500 nM | > 100 µM | 19.2 µM | > 100 µM | 34500 nM | > 100 µM | 40600 nM | > 100 µM | 18600 nM | 48.9 µM | 16400 nM | 40.7 µM | > 100000 nM | > 100 µM | 56800 nM | > 100 µM | > 100000 nM | > 100 µM | 59.6 µM | > 100 µM |
| CCCCNC(=O)Oc1ccc2c(=O)c3sc4c(=O)c5ccccc5c(=O)c4c3c(=O)c2c1 | 170 nM | 0.336 µM | 0.287 µM | 1.05 µM | 327 nM | 1.75 µM | 1380 nM | 3.57 µM | 235 nM | 0.767 µM | 977 nM | 2.15 µM | 1040 nM | 2.22 µM | 3110 nM | > 100 µM | 1160 nM | 4.42 µM | 2 µM | 6.83 µM |
| O=C(Nc1ccc(Cl)cc1)c1cc2cc(F)ccc2cc1O | 622 nM | 23.6 µM | 2.2 µM | > 100 µM | 2110 nM | 10.7 µM | 2620 nM | 22.3 µM | 1260 nM | 14.3 µM | 2560 nM | 8.99 µM | 553 nM | 2.74 µM | 1220 nM | 6.78 µM | 591 nM | 7.16 µM | 3.35 µM | 15.6 µM |
| CC1=C2C(=O)C(C)(C)C=C2C(=O)[C@](C)(O)C12CC2 |  | > 1 µM |  | > 1 µM |  | > 1 µM |  | > 1 µM |  | > 1 µM |  | > 1 µM |  | > 1 µM |  | 0.66 µM |  | > 1 µM |  | > 1 µM |
| COc1c(B(O)O)cccc1-c1nc2c(F)cc3[nH]ncc3c2c2c1CCCC2 | 1140 nM | 9.53 µM | 1.66 µM | 37.9 µM | 865 nM | 5.62 µM | 2610 nM | 34.3 µM | 343 nM | 4.99 µM | 5490 nM | 58.3 µM | 172 nM | 3.31 µM | 436 nM | 11.3 µM | 579 nM | 4.59 µM | 0.633 µM | 6.92 µM |
| O=C(c1cc2c(C(F)(F)F)onc2c2ccccc12)C(F)(F)F |  | 17 µM |  | > 27.9 µM |  | 18.3 µM |  | > 33.3 µM |  | 15.8 µM |  | > 100 µM |  | 34.9 µM |  | 6.86 µM |  | 12.8 µM |  | 21.6 µM |
| CN(C1=NS(=O)(=O)N=C(N(C)c2ccccc2)O1)c1ccccc1 |  | 28 µM |  | 43.4 µM |  | 27.6 µM |  | 48.6 µM |  | 39.3 µM |  | 51.5 µM |  | 42.1 µM |  | 33.7 µM |  | 43.9 µM |  | > 100 µM |
| O=C1CCC2=C3C4CCCCC4C(=O)C4CCCC(OC2C1)C34 (centres undefined) | 1690 nM | 4.32 µM | 2.59 µM | > 100 µM | 278 nM |  | 12600 nM | > 100 µM | 2440 nM | > 100 µM | 1790 nM | > 25.1 µM | 31800 nM | > 63.1 µM | 170 nM | 0.998 µM | 398 nM | 2.65 µM | 1.34 µM | 8.08 µM |
| O=C1/C=C/[C@@H](O)[C@@H]2C[C@@H](O)C[C@H]2/C=C/CCC[C@H](CO)O1 | 2550 nM | > 100 µM | 3.09 µM | > 100 µM | 832 nM | 3.81 µM | 3110 nM | > 100 µM | 3700 nM | > 100 µM | 2070 nM | > 100 µM | 1310 nM | > 100 µM | 2240 nM | 8.29 µM | 3320 nM | > 100 µM | 4.19 µM | > 100 µM |
